A short description of this series: solubility of the active ingredient according to pH (FIG. 1). Type of series: physicochemical. Conditions: at acid pHs; increases as pH rises (FIG. 1). An excerpt:
The main aim of the invention was to obtain an oral form in which the rate of release of the active ingredient is controlled and reproducible. In fact, in the current form the dissolution of the active ingredient varies greatly according to pH. This characteristic, associated with gliclazide itself, poses absorption problems for the active ingredient. The solubility is very weak at acid pHs and increases as pH rises.
FIG. 1 represents the phenomenon of the solubility of the active ingredient varying according to pH.

Take `Cc1ccc(S(=O)(=O)NC(=O)NN2CC3CCCC3C2)cc1` (stereo not shown) [gliclazide, Gliclazide]: the “solubility of the active ingredient” value is “very weak”.

The record behind these values is patent US6733782B1, “Core tablet for controlled release of gliclazide after oral administration” (Les Laboratories Servier, priority 1999, dated 2004).
